Measured values taken from patent US20250276089A1, “CO-DELIVERY OF INHIBITORY NUCLEIC ACIDS AND GENOME EDITORS FOR TUMOR THERAPY” (The Board of Regents of The University of Texas System, priority 2022, published 2025).

Test system: tumor cells
Experiment: mRNA delivery efficacy in tumor cells treated with an FAK inhibitor plus siCtrl+mRNA-LNPs
Assay type: cell-based
Settings: co-administered with siCtrl+mRNA-LNPs

CS(=O)(=O)c1cccc(CNc2nc(Nc3ccc4c(c3)CCC(=O)N4)ncc2C(F)(F)F)c1 [FAK inhibitor, PF-573228]
mRNA delivery efficacy and protein expression: enhanced
